Substitutions are numbered along the chain they refer to.
How the values were obtained:
Experiment in all cases: whole-cell patch clamp, […] AK-42
Type in all cases: cell-based
[1] = target: T1, ClC-2 (Homo sapiens, UniProt P51788, F459A)
T1 construct: gene CLCN2; human ClC-2 mutant expressed in CHO-K1 cells
T1 sequence (P51788 2-898 F459A): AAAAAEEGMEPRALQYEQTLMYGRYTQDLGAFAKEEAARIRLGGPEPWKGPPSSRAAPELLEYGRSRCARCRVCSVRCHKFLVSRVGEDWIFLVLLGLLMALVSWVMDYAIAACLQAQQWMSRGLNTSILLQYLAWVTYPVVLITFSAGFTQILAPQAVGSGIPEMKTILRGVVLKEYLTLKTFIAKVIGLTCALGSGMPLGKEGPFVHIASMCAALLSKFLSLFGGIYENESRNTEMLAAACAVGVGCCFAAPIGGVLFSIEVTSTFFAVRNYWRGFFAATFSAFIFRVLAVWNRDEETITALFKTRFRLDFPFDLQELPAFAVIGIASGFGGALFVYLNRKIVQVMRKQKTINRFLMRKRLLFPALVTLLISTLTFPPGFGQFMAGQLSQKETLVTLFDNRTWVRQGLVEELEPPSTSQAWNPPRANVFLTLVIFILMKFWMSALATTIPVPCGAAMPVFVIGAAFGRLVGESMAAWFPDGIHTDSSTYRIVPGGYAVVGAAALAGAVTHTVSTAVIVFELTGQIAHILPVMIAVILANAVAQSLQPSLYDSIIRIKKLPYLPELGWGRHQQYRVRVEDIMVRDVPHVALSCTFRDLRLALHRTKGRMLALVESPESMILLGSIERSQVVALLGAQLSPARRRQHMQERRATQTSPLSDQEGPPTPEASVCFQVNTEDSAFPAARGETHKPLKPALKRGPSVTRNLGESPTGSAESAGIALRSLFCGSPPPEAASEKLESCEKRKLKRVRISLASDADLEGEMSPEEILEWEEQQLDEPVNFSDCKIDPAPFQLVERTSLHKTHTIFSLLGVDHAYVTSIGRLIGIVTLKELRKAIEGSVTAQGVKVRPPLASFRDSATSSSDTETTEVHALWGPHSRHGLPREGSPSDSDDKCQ

[2] = target: T2, ClC-2 (Homo sapiens, UniProt P51788, K394A)
T2 construct: gene CLCN2; human ClC-2 mutant expressed in CHO-K1 cells
T2 sequence (P51788 2-898 K394A): T1 sequence (P51788 2-898 F459A) with K393A, A458F

[3] = target: T3, ClC-2 (Homo sapiens, UniProt P51788, K394R)
T3 construct: gene CLCN2; human ClC-2 mutant expressed in CHO-K1 cells
T3 sequence (P51788 2-898 K394R): T1 sequence (P51788 2-898 F459A) with K393R, A458F

Q: For `O=C(O)c1cccnc1Nc1c(Cl)ccc(OCc2ccccc2)c1Cl` [AK-42, 2-((3-(benzyloxy)−2,6-dichlorophenyl)amino)nicotinic acid], which “whole-cell patch clamp, 30 nM AK-42” value [1] is on record?
A: the mutation F459A in the hydrophobic pocket shows a higher percent inhibition value than wild-type ClC-2

Q: And the “whole-cell patch clamp, 30 nM AK-42” value [2]?
A: K394R and K394A showed a slightly lower but not significant percent inhibition of AK-42 than wild-type ClC-2

Q: And the “whole-cell patch clamp, 30 nM AK-42” value [3]?
A: K394R and K394A showed a slightly lower but not significant percent inhibition of AK-42 than wild-type ClC-2
